Test results: patent publication US9062066B2, “Anti-inflammatory compound having inhibitory activity against multiple tyrosine kinases and pharmaceutical composition containing same” (KOREA INSTITUTE OF SCIENCE AND TECHNOLOGY, priority 2010, dated 2015)
Like-named read-outs stand apart in the source and are kept apart here.

Assays:
[1] = system: NO synthesis in J744A.1 macrophage; assay: inhibition of nitric oxide (NO) synthesis in LPS-activated macrophages (Griess reagent); type: cell-based; conditions: read-out: Inhibition (%) of NO synthesis
Lyn tyrosine kinase = Lyn tyrosine kinase (Homo sapiens (Human), UniProt P07948); assay: in vitro Lyn tyrosine kinase inhibition; type: biochemical; conditions: for inhibition at 1 µM: read-out: % inhibition against Lyn
c-Src tyrosine kinase = c-Src tyrosine kinase (Homo sapiens (Human), UniProt P12931); assay: in vitro c-Src tyrosine kinase inhibition (32P-ATP, poly(D4Y)n substrate); type: biochemical; conditions: for inhibition at 1 µM: read-out: % inhibition against c-Src
Fgr tyrosine kinase = Fgr tyrosine kinase (Homo sapiens (Human), UniProt P09769); assay: in vitro Fgr tyrosine kinase inhibition; type: biochemical; conditions: for inhibition at 1 µM: read-out: % inhibition against Fgr
Hck tyrosine kinase = Hck tyrosine kinase (Homo sapiens (Human), UniProt P08631); assay: in vitro Hck tyrosine kinase inhibition; type: biochemical; conditions: for inhibition at 1 µM: read-out: % inhibition against Hck
[2] = system: TNF-α synthesis in J744A.1 macrophages; assay: inhibition of TNF-α synthesis in LPS-activated macrophages (ELISA); type: cell-based; conditions: Macrophage, read-out: Inhibition (%) of TNF-α synthesis
DDR1 tyrosine kinase = DDR1 tyrosine kinase (Homo sapiens (Human), UniProt Q08345); assay: in vitro DDR1 tyrosine kinase inhibition (GST-fused kinase domain); type: biochemical; conditions: for inhibition at 1 µM: read-out: % inhibition against DDR1
DDR2 tyrosine kinase = DDR2 tyrosine kinase (Homo sapiens (Human), UniProt Q16832); assay: in vitro DDR2 tyrosine kinase inhibition (GST-fused kinase domain); type: biochemical; conditions: for inhibition at 1 µM: read-out: % inhibition against DDR2
mouse skin fibroblast = assay: inhibition of migration of activated fibroblast (scratch wound); type: cell-based; conditions: 0.5 uM compound, 10 ng/ml TGF-β1, 24 hours, read-out: Inhibition (%) of migration of activated fibroblast
Procedure: The straight line of regular width was made using a micro pipette tip for a scratch wound on the mono-layer culture, and then the culture was exchanged to DMEM medium and incubated with 10 ng/ml of TGF-β1 in cell culture incubator of 37° C. for 24 hours. The cultured cells were fixed using formalin and stained with crystal violet. Photo-pictures were taken at 100× magnification in five location selected randomly in the scratched wound site of each stained culture dish and then the number of the cells moved into the scratched wound area was counted and averaged.

[3] = system: α-smooth muscle actin protein expression in skin fibroblast cells; assay: inhibition of α-smooth muscle actin expression in fibroblast activated by type I collagen and TGF-β1 (western blotting); type: cell-based, Balb/C mouse; conditions: Mus musculus, 0.5 uM compound, 10 ng/ml TGF-β1, 48 hours, type I collagen, read-out: Inhibition (%) of α-smooth muscle actin increase
From the text: When fibroblast, […] alpha smooth muscle cells are converted to myofibroblast by activation, one of characteristic features is that α-smooth muscle actin protein expression is increased. Also myoblast cells with the increased α-smooth muscle actin expression have a character of an increased migration. These phenomena appear together with the activation of inflammatory cells and the activated myoblast-type cells are known to contribute directly to the pathology of inflammatory diseases. […] In this experiment, the expression level of alpha smooth muscle actin can be quantificated by measuring the density of α-smooth muscle actin protein band with densitometer after developing the X-ray film of chemiluminescence signal in western blotting experiment.

[4] = 10 μM compound, 100 ng/ml LPS, 6 hours

Chain of Lyn tyrosine kinase (P07948 whole entry): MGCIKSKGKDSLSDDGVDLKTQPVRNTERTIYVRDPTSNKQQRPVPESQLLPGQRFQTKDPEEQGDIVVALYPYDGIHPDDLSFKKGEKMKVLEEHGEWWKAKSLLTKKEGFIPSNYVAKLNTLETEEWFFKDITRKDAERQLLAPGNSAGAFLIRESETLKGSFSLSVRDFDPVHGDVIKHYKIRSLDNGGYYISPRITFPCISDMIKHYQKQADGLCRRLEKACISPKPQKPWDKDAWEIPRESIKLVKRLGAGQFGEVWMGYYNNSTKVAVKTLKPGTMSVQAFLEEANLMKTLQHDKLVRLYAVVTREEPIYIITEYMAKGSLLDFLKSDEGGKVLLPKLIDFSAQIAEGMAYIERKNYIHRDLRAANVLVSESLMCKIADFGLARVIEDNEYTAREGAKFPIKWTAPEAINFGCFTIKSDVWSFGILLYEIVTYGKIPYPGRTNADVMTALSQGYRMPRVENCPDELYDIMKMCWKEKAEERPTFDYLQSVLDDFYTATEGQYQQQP
Chain of Hck tyrosine kinase (P08631 whole entry): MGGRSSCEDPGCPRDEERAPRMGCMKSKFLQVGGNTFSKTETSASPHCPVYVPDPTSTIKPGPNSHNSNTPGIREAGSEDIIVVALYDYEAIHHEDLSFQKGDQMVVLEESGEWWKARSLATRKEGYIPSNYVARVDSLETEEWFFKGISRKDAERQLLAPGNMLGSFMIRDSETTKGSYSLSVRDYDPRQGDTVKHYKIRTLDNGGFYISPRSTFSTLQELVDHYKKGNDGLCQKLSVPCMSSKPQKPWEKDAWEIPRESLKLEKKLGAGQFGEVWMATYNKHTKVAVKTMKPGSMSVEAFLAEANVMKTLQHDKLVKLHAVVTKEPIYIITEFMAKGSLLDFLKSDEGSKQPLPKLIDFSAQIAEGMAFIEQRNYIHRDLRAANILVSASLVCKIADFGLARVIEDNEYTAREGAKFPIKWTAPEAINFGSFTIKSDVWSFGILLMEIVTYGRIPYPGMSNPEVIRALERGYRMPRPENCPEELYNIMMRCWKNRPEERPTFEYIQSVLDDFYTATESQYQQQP
Chain of DDR2 tyrosine kinase (Q16832 563-849): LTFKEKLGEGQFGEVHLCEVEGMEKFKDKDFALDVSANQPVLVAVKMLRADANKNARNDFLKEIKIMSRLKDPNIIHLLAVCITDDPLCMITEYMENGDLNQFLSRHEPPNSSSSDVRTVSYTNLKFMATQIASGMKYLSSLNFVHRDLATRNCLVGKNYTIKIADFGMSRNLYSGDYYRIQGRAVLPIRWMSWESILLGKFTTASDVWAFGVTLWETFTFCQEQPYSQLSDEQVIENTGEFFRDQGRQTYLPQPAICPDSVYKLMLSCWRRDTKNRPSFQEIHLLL
Chain of Fgr tyrosine kinase (P09769 whole entry): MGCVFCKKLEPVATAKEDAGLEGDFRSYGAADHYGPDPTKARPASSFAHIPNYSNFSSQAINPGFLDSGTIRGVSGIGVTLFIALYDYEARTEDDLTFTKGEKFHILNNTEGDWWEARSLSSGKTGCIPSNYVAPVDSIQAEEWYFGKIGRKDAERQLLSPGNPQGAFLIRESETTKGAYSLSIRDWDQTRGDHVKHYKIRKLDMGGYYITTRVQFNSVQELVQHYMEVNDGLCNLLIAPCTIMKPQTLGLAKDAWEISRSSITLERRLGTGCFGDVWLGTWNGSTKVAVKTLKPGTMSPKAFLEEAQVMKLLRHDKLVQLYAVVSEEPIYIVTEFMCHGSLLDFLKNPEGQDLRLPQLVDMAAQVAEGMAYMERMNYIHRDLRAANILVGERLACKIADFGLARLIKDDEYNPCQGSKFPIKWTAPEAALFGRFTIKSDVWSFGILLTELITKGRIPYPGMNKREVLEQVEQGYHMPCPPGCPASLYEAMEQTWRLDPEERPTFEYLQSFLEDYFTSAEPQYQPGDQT
Chain of c-Src tyrosine kinase (P12931 whole entry, looked up): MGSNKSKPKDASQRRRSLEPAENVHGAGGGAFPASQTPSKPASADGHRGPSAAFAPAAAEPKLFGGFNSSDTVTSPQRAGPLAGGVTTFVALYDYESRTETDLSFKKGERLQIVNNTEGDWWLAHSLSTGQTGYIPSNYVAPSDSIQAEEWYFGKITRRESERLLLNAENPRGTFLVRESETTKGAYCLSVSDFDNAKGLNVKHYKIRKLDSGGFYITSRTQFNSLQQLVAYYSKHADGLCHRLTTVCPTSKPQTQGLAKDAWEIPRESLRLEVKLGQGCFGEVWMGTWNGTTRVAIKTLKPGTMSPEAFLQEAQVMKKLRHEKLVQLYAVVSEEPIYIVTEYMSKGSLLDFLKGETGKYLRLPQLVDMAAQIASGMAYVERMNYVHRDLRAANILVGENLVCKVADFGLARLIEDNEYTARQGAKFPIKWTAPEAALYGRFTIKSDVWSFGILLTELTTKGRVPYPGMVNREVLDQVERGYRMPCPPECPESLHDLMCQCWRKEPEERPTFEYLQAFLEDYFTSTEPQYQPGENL
Chain of DDR1 tyrosine kinase (Q08345 610-905): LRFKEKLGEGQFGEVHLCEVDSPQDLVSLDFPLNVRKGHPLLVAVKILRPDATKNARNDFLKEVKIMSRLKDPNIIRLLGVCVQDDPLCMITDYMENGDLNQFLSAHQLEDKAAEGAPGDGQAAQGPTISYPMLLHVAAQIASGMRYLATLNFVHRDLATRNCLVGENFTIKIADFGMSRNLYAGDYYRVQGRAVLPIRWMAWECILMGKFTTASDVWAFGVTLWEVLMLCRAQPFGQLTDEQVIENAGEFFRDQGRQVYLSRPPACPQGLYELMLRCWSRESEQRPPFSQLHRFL

Row | inhibition at 1 µM (Lyn tyrosine kinase; 1 uM compound) [%] | inhibition at 1 µM (c-Src tyrosine kinase; 1 uM compound) [%] | inhibition at 1 µM (Fgr tyrosine kinase; 1 uM compound) [%] | inhibition at 1 µM (Hck tyrosine kinase; 1 uM compound) [%] | inhibition at 1 µM (DDR1 tyrosine kinase; 1 uM compound) [%] | inhibition at 1 µM (DDR2 tyrosine kinase; 1 uM compound) [%] | Compound | inhibition at 10 µM ([1]; 10 μM compound, LPS, 24 hours) [%] | inhibition at 10 µM [2, 4] [%] | also measured
1 | > 70 | > 70 | > 70 | > 70 | > 70 | > 70 | Oc1cccc(Nc2ncnc3cc(-c4ccccc4)sc23)c1 [LCB 03-0008, 3-(6-phenylthieno[3,2-d]pyrimidin-4-ylamino)phenol] | 87 | 67 | 
2 | > 60 | > 60 | > 60 | > 60 | > 20 | > 20 | Oc1cccc(Nc2ncnc3cc(Br)sc23)c1 [LCB 03-0015, 3-(6-Bromo-thieno[3,2-d]pyrimidin-4-ylamino)-phenol] |  | 71 | 
3 | > 70 | > 70 | > 70 | > 70 | > 70 | > 70 | COc1cccc(Nc2ncnc3cc(-c4ccc(OCCN5CCOCC5)cc4)sc23)c1 [LCB 03-0018, N-(3-methoxyphenyl)-6-(4-(2-morpholinoethoxy)phenyl)thieno[3,2-d]pyrimidin-4-amine] | 89 | 68 | 
4 |  |  |  |  |  |  | COc1cccc(Nc2ncnc3cc(-c4cccs4)sc23)c1 [LCB 03-0030, (3-Methoxyphenyl)-(6-thiophene-2-yl-thieno[3,2-d]pyrimidin-4-yl)-amine] | 96 | 80 | % inhibition against Lyn (Lyn tyrosine kinase; 1 uM compound): >40%; % inhibition against c-Src (c-Src tyrosine kinase; 1 uM compound): >40%; % inhibition against Fgr (Fgr tyrosine kinase; 1 uM compound): >30%; % inhibition against Hck (Hck tyrosine kinase; 1 uM compound): >30%; % inhibition against DDR1 (DDR1 tyrosine kinase; 1 uM compound): >70%; % inhibition against DDR2 (DDR2 tyrosine kinase; 1 uM compound): >70%
5 | > 60 | > 60 | > 50 | > 50 | > 70 | > 70 | Oc1cccc(Nc2ncnc3cc(-c4ccco4)sc23)c1 [LCB 03-0038, 3-(6-(furan-2-yl)thieno[3,2-d]pyrimidin-4-ylamino)phenol] | 88 | 85 | 
6 | > 50 | > 50 | > 50 | > 50 | > 70 | > 70 | Oc1cccc(Nc2ncnc3cc(-c4ccoc4)sc23)c1 [LCB 03-0039, 3-(6-(furan-3-yl)thieno[3,2-d]pyrimidin-4-ylamino)phenol] | 80 | 80 | 
7 | > 40 | > 40 | > 40 | > 40 | > 80 | > 80 | O=C(Cc1ccc(-c2cc3ncnc(Nc4cccc(O)c4)c3s2)cc1)N1CCCC1 [LCB 03-0049, 2-(4-(4-(3-hydroxyphenylamino)thieno[3,2-d]pyrimidin-6-yl)phenyl)-1-(pyrrolidin-1-yl)ethanone] | 88 | 57 | 
8 | > 70 | > 70 | > 70 | > 70 | > 80 | > 80 | O=C(c1cccc(-c2cc3ncnc(Nc4cccc(O)c4)c3s2)c1)N1CCCC1 [LCB 03-0053, (3-(4-(3-hydroxyphenylamino)thieno[3,2-d]pyrimidin-6-yl)phenyl)(pyrrolidin-1-yl)methanone] | 94 | 83 | 
9 | > 50 | > 60 | > 60 | > 60 | > 80 | > 80 | CCN(CC)C(=O)c1cccc(-c2cc3ncnc(Nc4cccc(O)c4)c3s2)c1 [LCB 03-0054, N,N-diethyl-3-(4-(3-hydroxyphenylamino)thieno[3,2-d]pyrimidin-6-yl)benzamide] | 92 | 77 | 
10 | > 50 | > 50 | > 50 | > 50 | > 80 | > 80 | OCC1CCCN1Cc1ccc(-c2cc3ncnc(Nc4cccc(O)c4)c3s2)cc1 (stereo not shown) [LCB 03-0057, 3-(6-(4-((2-(hydroxymethyl)pyrrolidin-1-yl)methyl)phenyl)thieno[3,2-d]pyrimidin-4-ylamino)phenol] | 87 | 64 | 
11 | > 40 | > 40 | > 40 | > 40 | > 80 | > 80 | CC1CCN(Cc2ccc(-c3cc4ncnc(Nc5cccc(O)c5)c4s3)cc2)CC1 [LCB 03-0058, 3-(6-(4-((4-methylpiperidin-1-yl)methyl)phenyl)thieno[3,2-d]pyrimidin-4-ylamino)phenol] | 80 | 58 | 
12 | > 70 | > 70 | > 70 | > 70 |  |  | Oc1cccc(Nc2ncnc3cc(-c4ccc(N5CCOCC5)cc4)sc23)c1 [LCB 03-0082, 3-(6-(4-morpholinophenyl)thieno[3,2-d]pyrimidin-4-ylamino)phenol] | 90 | 77 | 
13 | > 30 | > 30 | > 30 | > 30 | > 80 | > 80 | Oc1cccc(Nc2ccnc3cc(-c4ccc(CN5CCCCC5)cc4)sc23)c1 [LCB 03-0097, 3-(2-(4-(piperidin-1-ylmethyl)phenyl)thieno[3,2-b]pyridin-7-ylamino)phenol] |  |  | inhibition at 0.5 µM (mouse skin fibroblast): 34%; inhibition at 0.5 µM [3]: 45%
14 | > 30 | > 30 | > 30 | > 30 | > 80 | > 80 | Oc1cccc(Nc2ccnc3cc(-c4ccc(CN5CCNCC5)cc4)sc23)c1 [LCB 03-0098, 3-(2-(4-(piperazin-1-ylmethyl)phenyl)thieno[3,2-b]pyridin-7-ylamino)phenol] |  |  | inhibition at 0.5 µM (mouse skin fibroblast): 34%; inhibition at 0.5 µM [3]: 51%
15 | > 30 | > 30 | > 30 | > 30 | > 80 | > 80 | CCNCc1ccc(-c2cc3nccc(Nc4cccc(O)c4)c3s2)cc1 [LCB 03-0099, 3-(2-(4-((ethylamino)methyl)phenyl)thieno[3,2-b]pyridin-7-ylamino)phenol] |  |  | inhibition at 0.5 µM (mouse skin fibroblast): 29%; inhibition at 0.5 µM [3]: 39%
16 |  |  |  |  |  |  | Oc1cccc(Nc2ncnc3cc(-c4cc(CN5CCCC5)cs4)sc23)c1 [LCB 03-0101, 3-(6-(4-(pyrrolidin-1-ylmethyl)thiophene-2-yl)thieno[3,2-d]pyrimidin-4-ylamino)phenol] |  |  | inhibition at 10 µM ([1]; 24 h): 76%; inhibition at 1 µM (Lyn tyrosine kinase): > 70%; inhibition at 1 µM (c-Src tyrosine kinase): > 70%; inhibition at 1 µM (Fgr tyrosine kinase): > 70%; inhibition at 1 µM (Hck tyrosine kinase): > 70%; inhibition at 10 µM ([2]; 6 h): 71%; inhibition at 1 µM (DDR1 tyrosine kinase): > 70%; inhibition at 1 µM (DDR2 tyrosine kinase): > 70%
17 | > 60 | > 60 | > 60 | > 60 | > 70 | > 70 | CN1CCN(Cc2csc(-c3cc4ncnc(Nc5cccc(O)c5)c4s3)c2)CC1 [LCB 03-0102, 3-(6-(4-((4-methylpiperazin-1-yl)methyl)thiophene-2-yl)thieno[3,2-d]pyrimidin-4-ylamino)phenol] | 97 |  | 
18 | > 70 | > 70 | > 70 | > 70 | > 70 | > 70 | CCNCc1csc(-c2cc3ncnc(Nc4cccc(O)c4)c3s2)c1 [LCB 03-0106, 3-(6-(4-((ethylamino)methyl)thiophene-2-yl)thieno[3,2-d]pyrimidin-4-ylamino)phenol] |  | 63 | 
